In this data set the target is ATP-binding cassette sub-family C member 2 (Homo sapiens, UniProt Q92887). The experiment in a line: TP_TRANSPORTER: transepithelial transport (basal to apical) in MRP2-expressing MDCKII cells. The data set is classed as functional, cell-based. Conditions: dog, mdck-ii.
Chain of ATP-binding cassette sub-family C member 2 (Q92887 whole entry): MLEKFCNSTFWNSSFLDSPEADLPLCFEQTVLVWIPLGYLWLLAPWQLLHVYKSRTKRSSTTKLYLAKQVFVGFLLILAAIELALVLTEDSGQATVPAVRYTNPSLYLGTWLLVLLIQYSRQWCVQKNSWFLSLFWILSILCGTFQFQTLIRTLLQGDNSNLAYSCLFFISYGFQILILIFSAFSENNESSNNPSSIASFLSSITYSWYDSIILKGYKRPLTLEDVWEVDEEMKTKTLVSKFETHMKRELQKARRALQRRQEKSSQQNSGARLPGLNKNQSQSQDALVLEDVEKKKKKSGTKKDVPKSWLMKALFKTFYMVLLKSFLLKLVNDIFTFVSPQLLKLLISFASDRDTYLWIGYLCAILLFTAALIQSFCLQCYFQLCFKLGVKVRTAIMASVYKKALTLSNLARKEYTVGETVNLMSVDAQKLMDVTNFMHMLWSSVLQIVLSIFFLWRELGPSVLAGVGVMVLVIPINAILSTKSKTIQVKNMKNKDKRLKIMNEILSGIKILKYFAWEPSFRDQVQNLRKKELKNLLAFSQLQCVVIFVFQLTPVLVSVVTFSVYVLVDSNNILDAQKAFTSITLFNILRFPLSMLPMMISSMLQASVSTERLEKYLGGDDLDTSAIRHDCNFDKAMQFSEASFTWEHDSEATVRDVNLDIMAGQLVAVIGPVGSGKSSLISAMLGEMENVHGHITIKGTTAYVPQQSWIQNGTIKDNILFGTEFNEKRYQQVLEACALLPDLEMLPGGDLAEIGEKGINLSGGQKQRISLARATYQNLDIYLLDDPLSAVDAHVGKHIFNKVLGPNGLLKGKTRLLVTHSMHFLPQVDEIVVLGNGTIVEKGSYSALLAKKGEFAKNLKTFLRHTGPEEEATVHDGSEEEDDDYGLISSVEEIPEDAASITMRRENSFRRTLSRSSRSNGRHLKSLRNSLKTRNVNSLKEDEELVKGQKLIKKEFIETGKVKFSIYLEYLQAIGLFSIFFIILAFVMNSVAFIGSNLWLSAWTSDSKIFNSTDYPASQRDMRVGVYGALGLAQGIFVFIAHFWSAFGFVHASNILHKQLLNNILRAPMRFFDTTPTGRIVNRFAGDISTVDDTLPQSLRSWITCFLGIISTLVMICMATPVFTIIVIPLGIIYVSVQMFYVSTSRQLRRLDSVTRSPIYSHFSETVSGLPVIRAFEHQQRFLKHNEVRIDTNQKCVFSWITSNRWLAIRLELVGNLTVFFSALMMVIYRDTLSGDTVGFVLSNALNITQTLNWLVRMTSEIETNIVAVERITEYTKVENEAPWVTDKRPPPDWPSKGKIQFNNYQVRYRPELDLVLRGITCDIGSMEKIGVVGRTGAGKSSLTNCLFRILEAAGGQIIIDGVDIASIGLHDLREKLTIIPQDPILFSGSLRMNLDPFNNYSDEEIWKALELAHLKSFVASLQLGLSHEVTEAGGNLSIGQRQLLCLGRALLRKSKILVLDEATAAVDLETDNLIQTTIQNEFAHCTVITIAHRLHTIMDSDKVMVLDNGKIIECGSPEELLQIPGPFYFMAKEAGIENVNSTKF

Turning to `Cn1c(N)nc2ncc(-c3ccccc3)cc21` [2-AMINO-1-METHYL-6- PHENYLIMIDAZO[4,5- B]PYRIDINE], the Activity entry was “substrate [+]”.

Values taken from ChEMBL document CHEMBL2073996, “Increased bioavailability of the food-derived carcinogen 2-amino-1-methyl-6-phenylimidazo[4,5-b]pyridine in MRP2-deficient rats” (Mol Pharmacol, 2001).
